{"source": "patent US5496843A", "about": "“Tricyclic indole-2-carboxylic acid derivatives” (Sumitomo Pharmaceuticals Company, Limited, priority 1993, dated 1996)", "key": {"[1]": {"tested_on": "strychnine-insensitive glycine modulatory site of NMDA (N-methyl D-aspartate) receptors", "test": "[3H] glycine binding studies", "settings": "10 ng/mL test compound; 10 nM [3H] glycine; rat brain synaptic membrane preparation", "experimental": "(§1) The activities of the compounds were measured by [^3 H] DCKA and [^3 H] glycine binding inhibition studies as illustrated below. [^3 H] glycine binding studies\n(§2) A crude rat brain synaptic membrane preparation was washed three times by centrifugation at 50,000×g for 30 min with 50 mM tris acetate (pH 7.4). The pellets obtained were suspended in 0.23M sucrose solution and stored at -80° C. For binding studies, the frozen suspension was thawed, treated with 0.08% triton X-100 at 2° C. for 10 min, and washed twice by the centrifugation as mentioned above. The synaptic membrane thus prepared (ca. 150~200 μg of protein) was incubated with 10 nM [^3 H] glycine (1.11 TBq/mmol) and the test compound (10 ng/mL~0.1 ng/mL) at 2° C. for 10 min in 50 mM tris acetate (pH 7.4). The incubation was terminated by suction filtration using Whatman GF/B glass filter. The radioactivity bound to the membrane on the filter was measured by scintillation counting. Non-specific binding was calculated by the radioactivity measured under the incubations in the presence of 0.1 mM D-serine. The [3H] glycine binding was not inhibited by addition of 0.1 mM strychnine."}, "[2]": {"tested_on": "strychnine-insensitive glycine modulatory site of NMDA (N-methyl D-aspartate) receptors", "test": "[3H] DCKA binding studies", "settings": "10 ng/mL test compound; 10 nM [3H] DCKA; rat brain synaptic membrane preparation", "experimental": "as §1\n[^3 H] DCKA binding studies\nas §2, with “100” for “150~200”, “(DCKA) (603 GBq/mmol)” for “glycine (1.11 TBq/mmol)”, “ng/mL~0.1ng/mL)” for “ng/mL~0.1 ng/mL)”, “glycine. […] DCKA binding.” for “D-serine. The [3H] glycine binding was not inhibited by addition of 0.1 mM strychnine.”"}, "[3]": {"tested_on": "NMDA-induced tonic seizures", "test": "NMDA-induced seizure model", "type": "in vivo", "settings": "30 mg/kg, i.p., 30 min before NMDA (5 nmol) i.c.v.; mice", "experimental": "The compounds of the present invention attenuated strongly NMDA-induced seizure under systemic administration in the following in vivo model. NMDA-induced seizure model Thirty min later following intraperitoneal administration of the test compound (0.3~30 mg/kg) into each of ten mice tested, NMDA (5 nmol) was administered intracerebroventricularly (i.c.v.)."}}, "data": [{"smiles": "Cl.NCc1ccc(NC(=O)CC2CCc3cc(Cl)cc4[nH]c(C(=O)O)c2c34)c(CC(=O)O)c1", "note": "(stereo not drawn) [Example 5, 7-Chloro-3-[p-aminomethyl-o-(carboxymethyl)phenylcarbamoylmethyl]-1,3,4,5-tetrahydrobenz[cd]indole-2-carboxylic acid hydrochloride]", "values": [{"measurement": "inhibition of the [3H] glycine binding", "setting": "[1]", "value": 69, "unit": "%"}, {"measurement": "inhibition of the [3H] DCKA binding", "setting": "[2]", "value": 94, "unit": "%"}, {"measurement": "protection from tonic seizures", "setting": "[3]", "value": 90, "unit": "%"}]}]}
